Like-named read-outs stand apart in the source and are kept apart here.
What was measured:
HepG2 cells = experiment: Annexin V-FITC apoptosis assay, HepG2; assay type: cell-based, human
Description: (§1) ART- and DHA-induced apoptosis alone or in combination with gemcitabine in HepG2 and Hep3B cells or in combination with carboplatin in ovarian cancer cells may be determined by flow cytometry using the Annexin V-FITC Apoptosis Detection kit following the manufacturer's instructions. Briefly, 2×10^5 cells may be treated with ART and DHA (0, 1, 10, 25, and 50 mol/L) or 10 μg/L gemcitabine for 48 h. The cells may then be harvested, washed in PBS, and incubated with Annexin V and propidium iodide for staining in binding buffer at room temperature for 10 min in the dark. The stained cells may be analyzed using the FACSAria instrument.

OVCAR-3 cells = experiment: Annexin V-FITC apoptosis assay, OVCAR-3; assay type: cell-based, human; conditions: for increase in apoptosis versus control: 24 hrs
Description: as §1, with “Briefly, 2×10^5 cells may be treated with ART and DHA (0, 1, 10, 25, and 50 mol/L) or 10 μg/L gemcitabine for 48 h.” left out

A2780 xenograft tumors = assay type: in vivo; conditions: for tumor growth inhibition: A2780 xenograft, 5 days/week
Description: Four to six week old female athymic nude mice (BALB/c, nu/nu) may be purchased from Shanghai Experimental Animal Center (Shanghai, China). Animal studies are approved by the Institute for Nutritional Sciences. The tumor xenograft model may be established as follows. […] Aliquots of cells (˜5×10^6 cells/0.2 ml) may be injected subcutaneously into the left inguinal area of the mice. The tumor growth and body weight of the mice may be monitored every other day. Tumor mass may be determined. Mice bearing palpable tumors (˜70 mg) may be randomly divided into treatment and control groups n=5 mice/group). CBP may be dissolved in saline, and DHA may be dissolved in cremophor EL:ethanol:saline (5:5:90, v/v/v). DHA may be administered via i.p. injection at doses of 10 and 25 mg/kg/5 days/week for 3 weeks) alone or combined with CBP (at a single dose of 120 mg/kg, once on day 0). The control group receives saline only. Mice may be killed on day 18. Tumors may be carefully excised, trimmed of extraneous fat or connective tissue, and homogenized in RIPA buffer (100 mg tumor tissue/1 ml RIPA) and prepared for immunoblotting analysis as described above.

SMILES	apoptotic cells (HepG2 cells; HepG2, 1 μmol/L, 48 h (0 μmol/L: 7%))	apoptotic cells (HepG2 cells; HepG2, 10 μmol/L, 48 h)	apoptotic cells (HepG2 cells; HepG2, 25 μmol/L, 48 h)	apoptotic cells (HepG2 cells; HepG2, 50 μmol/L, 48 h)	increase in apoptosis versus control (OVCAR-3 cells; OVCAR-3, 25 μM)	increase in apoptosis versus control (OVCAR-3 cells; OVCAR-3, 50 μM)	rate of apoptosis (control regarded as 100%) (OVCAR-3 cells; OVCAR-3, 24 hrs, DHA 1 μM, CBP 500 μM, alone or combined)	tumor growth inhibition (A2780 xenograft tumors; DHA 10 mg/kg i.p., vs saline control)	tumor growth inhibition (A2780 xenograft tumors; DHA 25 mg/kg i.p.)	host toxicity based on observation of body weight (A2780 xenograft tumors; mice bearing A2780 or OVCAR-3 xenografts)
C[C@@H]1CC[C@H]2[C@@H](C)C(=O)O[C@@H]3O[C@@]4(C)CC[C@@H]1[C@]32OO4 [ART, artemisinin]	9%	14.95%	15.45%	16.45%	–	–	–	–	–	–
C[C@H]1[C@@H](O)O[C@@H]2O[C@@]3(C)CC[C@H]4[C@H](C)CC[C@@H]1[C@@]24OO3 [DHA, dihydroartemisinin]	–	–	–	–	18 fold	22 fold	266%	24%	41%	No other host toxicities are observed

Source: patent US20100279976A1, “USE OF ARTEMISININ AND ITS DERIVATIVES IN CANCER THERAPY” (SHANGHAI INSTITUTES FOR BIOLOGICAL SCIENCES, CAS, priority 2009, published 2010)
